How the values were obtained:
[1] = system: mono-, di- and poly-ubiquitins; assay: Immunoblot of ubiquitins in HeLa cells; assay type: cell-based, human; conditions: BMP-stimulated HeLa, 24h; MG132 5µM, E738 (1µM)
Experimental: Western blot:: Cell extracts were homogenized in Urea-Lysis buffer (1mM EDTA,0.5% Triton X-100), 5mM NaF, 6M Urea, 1mM Na3VO4, 10µg/mL Pepstatin, 100µM PMSF and 3µg/mL Aprotinin in PBS). Enhanced chemiluminescence (ECL) Western blot analysis was performed. 20-40µg of total protein was resolved on 10% SDS-PAGE gels and immunoblotted with specific antibodies. Primary antibodies were incubated at a 1:1,000 dilution in TBS (pH 7.5) with 0.1% Tween-20 and 5% BSA/nonfat milk with gentle agitation overnight at 4°C. The proper secondary antibodies were incubated in TBS (pH 7.5) with 5% BSA/nonfat milk and 0.1 % Tween-20 at a 1:5,000 dilution for 1 h at room temperature.
Ubiquitin-proteasome degradation system is the major route to protein degradation. To identify if indirubin-induced degradation is conducted by proteasome, we utilized MG132, a general proteasome inhibitor, to characterize the role of proteasome in degradation. We found 5µM MG132 was sufficient to rescue the E738 mediated Smad1/5/8 […] 24h after treatment (Fig. 5E and 5F). […] Thus we interpreted that E738 might be able to promote degradation of polymerased ubiquintins through activating the formation of complexes with certain substrates, speculatively like Smad1/2/3/5/8, leading to accelerate the recycling of mono-ubiquitin, while MG132 blocked the degradation of these complexes and arrest such recycling. […]

[2] = system: Parp; assay: Parp cleavage by immunoblot; assay type: cell-based; conditions: E738 (1µM), FCS 10% or BMP2 (100ng/mL)
Experimental: The Figures show: • Figure 1: IRDs impacted on the activation of BMP-associated Smad1/5/8 in HeLa and HFF. Phosphorylation of Smad1 (Ser463/465)/5 (Ser463/465)/8 (Ser426/428) and pan Smad1/5/8 were detected by immunoblot after 24h treatment with IRDs as indicated at 1µM or 5µM a) in HeLa with the stimuli of BMP2 (100ng/mL), b) FCS 10%, c) in HFF with the stimuli of BMP2 (100ng/mL) or d) FCS 10%. […] Data were normalized to the value of non-treated cells, show the mean ± SD of quadruplicates and are representative of three independent experiments. […] Total lysates were analyzed by immunoblot using proper antibodies. b) Cell extracts of BMP-treated HeLa cells with or without compounds were subject to immunoblot using p- and pan-Smad1/5/8 antibodies. c) HeLa cells were incubated with or without E738 (1µM) after a 1 h pulse of BMP2, d) or with DM (1µM) and E738 (1µM) for the indicated periods. • Figure 4: R-Smad regulated by E738 in time- and dose-response studies. HeLa cells were treated with BMP2 (100ng/mL) in the presence or absence of E738 (1µM) in a time course study as indicated and analyzed, a) by immunoblot using antibodies against p-Smad1/5/8 at C tail, p-Smad1/5/8 at S206), Smad1/5/8, p-Erk1/2, p-JNK and p-P38 or b) qRT-PCR using primers of ID1 and ID2. […] The expression of Smad1, Smad2, Smad4, Smurf1 and Smurf2 were analyzed by qRT- PCR. […]

COc1ccc2c(c1)C(=C1Nc3ccccc3C1=NOCC(O)CO)C(=O)N2 (centres unmarked) [E738]
mono-, di- and poly-ubiquitins [1]: more mono-ubiquitin, but less di- and poly-ubiquitins | Parp cleavage [2]: induced Parp cleavage
